Experimental findings from PubChem BioAssay AID328 (DTP/NCI, 2004) are described below.

Values joined by “and” are separate entries in the source; they are usually repeats but may differ in a detail not shown here. Identical values can stand only once. Toxic doses and inconclusive results are not listed.

In the test the test system is BDF1 mice, P388 leukemia ip, median survival T/C. The test is described as follows: NCI In Vivo Anticancer Drug Screen. Data for tumor model P388 Leukemia (intraperitoneal) in B6D2F1 (BDF1) mice. Conditions: endpoint: median survival time, higher = longer survival. In outline:
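Transplantable tumour in mice; compound vs vehicle dosing; survival scored; ratio of treated to control reported.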

Where [1] appears, read: dose: 50.0 mg/kg/injection, schedule: Q01DX009 (ip), vehicle: other.
Where [2] appears, read: dose: 100.0 mg/kg/injection, schedule: Q01DX009 (ip), vehicle: other.
Setting [3] is: dose: 50.0 mg/kg/injection, schedule: Q01DX009 (ip), vehicle: saline with Tween-80.
Setting [4] is: dose: 100.0 mg/kg/injection, schedule: Q01DX009 (ip), vehicle: saline with Tween-80.
Where [5] appears, read: dose: 100.0 mg/kg/injection, schedule: Q04DX003 (ip), vehicle: saline with Tween-80.
Setting [6] is: dose: 200.0 mg/kg/injection, schedule: Q04DX003 (ip), vehicle: saline with Tween-80.

Consider `ClCc1c2ccccc2c(CCl)c2ccccc12`, for which the T/C (dose: 0.21 mg/kg/injection, schedule: Q01DX009 (ip), vehicle: saline) is 154 % of control; the T/C (dose: 0.33 mg/kg/injection, schedule: Q01DX009 (ip), vehicle: saline) was 159 % of control and 190 % of control; the T/C (dose: 0.49 mg/kg/injection, schedule: Q01DX009 (ip), vehicle: saline) is 154 % of control; the T/C (dose: 1.3 mg/kg/injection, schedule: Q04DX003 (ip), vehicle: Klucel (hydroxypropylcellulose) (HPC)) is 150 % of control; the T/C (dose: 1.35 mg/kg/injection, schedule: Q01DX009 (ip), vehicle: saline) is 180 % of control; the T/C (dose: 1.5 mg/kg/injection, schedule: Q01DX009 (ip), vehicle: Klucel (hydroxypropylcellulose) (HPC)) is 153 % of control. Further, the T/C was 170 % of control (dose: 2.0 mg/kg/injection, schedule: Q04DX003 (ip), vehicle: Klucel (hydroxypropylcellulose) (HPC)); 157 % of control and 200 % of control (dose: 3.0 mg/kg/injection, schedule: Q01DX009 (ip), vehicle: Klucel (hydroxypropylcellulose) (HPC)); 154 % of control and 166 % of control (dose: 3.0 mg/kg/injection, schedule: Q04DX003 (ip), vehicle: Klucel (hydroxypropylcellulose) (HPC)); 168 % of control (dose: 5.0 mg/kg/injection, schedule: Q04DX003 (ip), vehicle: Klucel (hydroxypropylcellulose) (HPC)); 105 % of control (dose: 6.0 mg/kg/injection, schedule: Q01DX009 (ip), vehicle: Klucel (hydroxypropylcellulose) (HPC)); 154 % of control and 172 % of control (dose: 8.0 mg/kg/injection, schedule: Q04DX003 (ip), vehicle: Klucel (hydroxypropylcellulose) (HPC)). The T/C (dose: 12.0 mg/kg/injection, schedule: Q04DX003 (ip), vehicle: Klucel (hydroxypropylcellulose) (HPC)) is 177 % of control.

Regarding `CCCCSc1cc(Cc2cc(C)ccc2O)c(O)c(Cc2cc(C)ccc2O)c1`, the T/C was 107 % of control under setting [1] and 107 % of control under setting [2].

Take `O=C(/C=C/c1cccc(Br)c1)c1ccc(Cl)cc1`: the T/C was 120 % of control under setting [1]; 100 % of control (dose: 50.0 mg/kg/injection, schedule: Q04DX003 (ip), vehicle: other); 120 % of control under setting [2]; 100 % of control (dose: 100.0 mg/kg/injection, schedule: Q04DX003 (ip), vehicle: other); 100 % of control (dose: 132.0 mg/kg/injection, schedule: Q01DX009 (ip), vehicle: other); 104 % of control (dose: 200.0 mg/kg/injection, schedule: Q01DX009 (ip), vehicle: other). Besides, the T/C is, setting by setting: (dose: 200.0 mg/kg/injection, schedule: Q04DX003 (ip), vehicle: other) 90 % of control; (dose: 300.0 mg/kg/injection, schedule: Q01DX009 (ip), vehicle: other) 104 % of control.

Regarding `Cc1cc2nc[nH]c(=O)n2n1`, the T/C runs as follows: under setting [3], 110 % of control; under setting [4], 90 % of control.

Take `COC(=O)C1(C)CCC(c2ccc(OC)cc2)C(CC(=O)O)C1=O` (stereo not drawn): the T/C was 95 % of control (dose: 100.0 mg/kg/injection, schedule: Q01DX009 (ip), vehicle: saline); 100 % of control (dose: 100.0 mg/kg/injection, schedule: Q04DX003 (ip), vehicle: saline); 104 % of control (dose: 200.0 mg/kg/injection, schedule: Q01DX009 (ip), vehicle: saline); 119 % of control (dose: 200.0 mg/kg/injection, schedule: Q04DX003 (ip), vehicle: saline); 109 % of control (dose: 400.0 mg/kg/injection, schedule: Q01DX009 (ip), vehicle: saline); 96 % of control (dose: 400.0 mg/kg/injection, schedule: Q04DX003 (ip), vehicle: saline).

For the compound `O=[N+]([O-])c1ccc(NS(=O)(=O)c2ccc(Cl)c(Cl)c2Cl)c([N+](=O)[O-])c1`, the T/C reads like this: (dose: 25.0 mg/kg/injection, schedule: Q01DX009 (ip), vehicle: saline with Tween-80) 96 % of control; under setting [3], 105 % of control; under setting [4], 102 % of control.

Regarding `O=c1oc(-c2ccccc2)nc2cc(Cl)ccc12`, the T/C is 100 % of control and 109 % of control (dose: 50.0 mg/kg/injection, schedule: Q04DX003 (ip), vehicle: saline with Tween-80); 100 % of control and 109 % of control under setting [5]; 104 % of control under setting [6].

On to `CC(O)CN1CC(C)N(CC(C)O)CC1C` (stereo not drawn), for which the T/C (dose: 12.5 mg/kg/injection, schedule: Q04DX003 (ip), vehicle: saline) is 104 % of control; the T/C (dose: 25.0 mg/kg/injection, schedule: Q04DX003 (ip), vehicle: saline) is 100 % of control; the T/C (dose: 50.0 mg/kg/injection, schedule: Q04DX003 (ip), vehicle: saline) was 100 % of control.

`Nc1nc(N)c2cc(CNc3ccc(C(=O)NC(CC(=O)O)C(=O)O)cc3)ccc2n1` (stereo not drawn): the T/C is 112 % of control (dose: 0.11 mg/kg/injection, schedule: Q01DX009 (ip), vehicle: saline); 154 % of control (dose: 0.38 mg/kg/injection, schedule: Q01DX009 (ip), vehicle: saline); 183 % of control (dose: 0.5 mg/kg/injection, schedule: Q01DX009 (ip), vehicle: saline); 213 % of control (dose: 1.0 mg/kg/injection, schedule: Q04DX003 (ip), vehicle: saline sonified); 204 % of control (dose: 2.0 mg/kg/injection, schedule: Q04DX003 (ip), vehicle: saline sonified); 161 % of control (dose: 5.5 mg/kg/injection, schedule: Q04DX003 (ip), vehicle: saline sonified). Also, the T/C reads like this: (dose: 6.25 mg/kg/injection, schedule: Q01DX009 (ip), vehicle: saline) 95 % of control; (dose: 8.25 mg/kg/injection, schedule: Q04DX003 (ip), vehicle: saline sonified) 177 % of control; (dose: 25.0 mg/kg/injection, schedule: Q04DX003 (ip), vehicle: saline sonified) 96 % of control.

Consider `CCC(=O)O[C@H]1CC(=O)N(C)c2cc(cc(OC)c2Cl)C/C(C)=C/C=C[C@@H](OC)[C@@]2(O)C[C@H](OC(=O)N2)[C@@H](C)[C@H]2O[C@@]12C`, for which the T/C by setting is: (dose: 0.8 micrograms/kg/injection, schedule: Q01DX009 (ip), vehicle: saline + alcohol) 170 % of control; (dose: 0.9 micrograms/kg/injection, schedule: Q01DX009 (ip), vehicle: saline + alcohol) 110 % of control; (dose: 1.5 micrograms/kg/injection, schedule: Q01DX009 (ip), vehicle: saline + alcohol) 173 % of control; (dose: 3.1 micrograms/kg/injection, schedule: Q01DX009 (ip), vehicle: saline + alcohol) 168 % of control; (dose: 6.2 micrograms/kg/injection, schedule: Q01DX009 (ip), vehicle: saline + alcohol) 170 % of control; (dose: 12.5 micrograms/kg/injection, schedule: Q01DX009 (ip), vehicle: saline + alcohol) 163 % of control and 183 % of control. Also, the T/C is 258 % of control and 153 % of control (dose: 25.0 micrograms/kg/injection, schedule: Q01DX009 (ip), vehicle: saline + alcohol); 198 % of control and 223 % of control (dose: 50.0 micrograms/kg/injection, schedule: Q01DX009 (ip), vehicle: saline + alcohol).

Consider `O=C(NC(C(=O)O)c1ccccc1)OCc1ccccc1` (stereo not drawn), for which the T/C is 104 % of control under setting [5]; 109 % of control under setting [6]; 100 % of control (dose: 400.0 mg/kg/injection, schedule: Q04DX003 (ip), vehicle: saline with Tween-80).

For the compound `O=CC(/C=N\Nc1ccccc1)=N/Nc1ccccc1`, the T/C by setting is: (dose: 20.0 mg/kg/injection, schedule: Q01DX009 (ip), vehicle: saline with Tween-80) 100 % of control; (dose: 80.0 mg/kg/injection, schedule: Q01DX009 (ip), vehicle: saline with Tween-80) 89 % of control.

Turning to `C=C(C)C(=O)O[C@H]1C[C@@]23O[C@@H]2CCC(=C[C@H]2OC(=O)C(=C)[C@H]12)COC3O` (stereo partly drawn), the T/C (dose: 9.37 mg/kg/injection, schedule: Q01DX009 (ip), vehicle: saline) was 108 % of control; the T/C (dose: 18.75 mg/kg/injection, schedule: Q01DX009 (ip), vehicle: saline) was 104 % of control; the T/C (dose: 18.75 mg/kg/injection, schedule: Q04DX003 (ip), vehicle: saline) was 113 % of control; the T/C (dose: 37.5 mg/kg/injection, schedule: Q04DX003 (ip), vehicle: saline) is 95 % of control.

On to `CCNc1ncc([N+](=O)[O-])c(Nc2ccccc2)n1`, for which the T/C under setting [3] was 103 % of control; the T/C under setting [4] is 103 % of control; the T/C (dose: 200.0 mg/kg/injection, schedule: Q01DX009 (ip), vehicle: saline with Tween-80) was 88 % of control.

As to `CN1CC2CC(C1)c1cccc(=O)n1C2` (stereo not drawn), the T/C (dose: 5.0 mg/kg/injection, schedule: Q01DX010 (ip), vehicle: saline) was 86 % of control; the T/C (dose: 10.0 mg/kg/injection, schedule: Q01DX010 (ip), vehicle: saline) was 109 % of control; the T/C (dose: 20.0 mg/kg/injection, schedule: Q01DX010 (ip), vehicle: saline) is 104 % of control; the T/C (dose: 40.0 mg/kg/injection, schedule: Q01DX010 (ip), vehicle: saline) is 95 % of control.
